Assay results as given in patent publication US20050176829A1, “Methods for treating hypothyroidism” (priority 2003, published 2005).
Entries after “also recorded” stand apart in the source; their conditions may differ. Read-outs that look alike come from different tables or passages of the source. Marks after values point to notes of the source that are not given here.

Columns and labels:
[1] = Heart rate after daily bolus administration of T3 in rats; format: in vivo, rat; conditions: for T3max−Conmax: max HR T3 minus max HR saline control
[2] = Serum T3, free T3 and T4 levels in hypothyroid (thyroidectomized) rats after T3 infusion or bolus injection (radioimmunoassay); format: in vivo, rat
From the text: FIG. 2. […] Three rats per each group.
Methods and Materials—Animal Studies. […] Results are expressed as means ±SE.

[3] = clinical; conditions: human, in vivo, metabolic clearance rate (MCR) of T3
[4] = Serum half-life of T3 after bolus injection in thyroidectomized rats; format: in vivo; conditions: Sprague-Dawley, rat, intravenous, 1 ug
[5] = cited from earlier work
[6] = rats (Goslings et al.); cited from earlier work
[7] = hypothyroid rats, T3 infusion 7.0 μg/d, 1 week; cited from earlier work
[8] = test system: alpha-myosin heavy chain (alpha-MHC)
Protocol: FIG. 3A-3B. […] A: Representative agarose gel showing alpha-MHC hnRNA PCR products stained with ethidium bromide and visualized with ultraviolet light. PCR fragment size is 335 basepairs (bp). B: Quantification of hnRNA alpha-MHC 335 bp fragment from left ventricular RNA shown as a percentage of euthyroid (normal) values for three rats.
FIG. 4. […] Three 200 gram rats per each group.
FIG. 6. […] Hearts were removed after 3-4 days (24 hours after the last injection), and RNA was extracted from the left ventricles. Transcription was measured by quantitation of α-MHC hnRNA. The content of α-MHC hnRNA measured in these hearts is expressed as the percent of euthyroid (100%).
Methods and Materials—Animal Studies. Studies were conducted using adult Sprague-Dawley rats weighing between 180 and 225 g. Thyroidectomies were performed by surgical removal of the thyroid gland. […] After animals were sacrificed, the left ventricle of the heart was immediately frozen in liquid nitrogen and then treated for RNA extraction as previously described (Balkman et al. Endocrinology 130: 1002-6, 1992). Reverse transcription polymerase chain reaction (RT-PCR) assay of total left ventricular RNA for alpha-myosin heavy chain (alpha-MHC) heteronuclear (hn) RNA was carried out as previously described (Danzi and Klein, Thyroid 12(6): 467-72, 2002; Danzi et al. Am J Physiol Heart Circ Physiol. 284(6) :H2255-62, 2003). Results are expressed as means ±SE.
Expression of the cardiac- specific gene alpha-myosin heavy chain (alpha-MHC) is a sensitive indicator of normal cardiac function (Ojamaa et al. CVR&R 23: 20-6, 2002; Danzi et al. Am J Physiol Heart Circ Physiol. 284(6) :H2255-62, 2003; Danzi and Klein, Thyroid 12(6): 467-72, 2002; Ojamma and Klein, Endocrinology 132: 1002-6, 1993).

[9] = daily bolus T3 0.8 μg/200 gram rat, day 1
[10] = daily bolus T3 0.8 μg/200 gram rat, day 2
[11] = daily bolus T3 0.8 μg/200 gram rat, day 3
[12] = daily bolus T3 0.8 μg/200 gram rat, day 4
[13] = daily bolus T3 0.8 μg/200 gram rat, day 5
[14] = day 6, no dosing of T3 on this day
[15] = day 7, no dosing of T3 on this day

With `N[C@@H](Cc1cc(I)c(Oc2ccc(O)c(I)c2)c(I)c1)C(=O)O` [T3, triiodothyronine] the “Δ HR” value ([1]; AVG of days 1-7) was 84, the “min HR” value ([1]; AVG of days 1-7, P < 0.001 vs control) was 307^+ and the “max HR” value ([1]; AVG of days 1-7, P < 0.002 vs control) was 390^. The “maximum heart rate versus normal” value ([1]; bolus daily injections of T3 at 0.8 μg) was “increasing maximum heart rate above normal”, the “max HR” value [1, 9] was 345 and the “min HR” value [1, 9] was 270. For the same compound, the “Δ HR” value [1, 9] was 75, the “max HR” value [1, 10] was 370 and the “min HR” value [1, 10] was 315. The “Δ HR” value [1, 10] was 55, the “max HR” value [1, 11] was 385** and the “min HR” value [1, 11] was 320. The “Δ HR” value [1, 11] was 65, the “max HR” value [1, 12] was 410** and the “min HR” value [1, 12] was 320. The “Δ HR” value [1, 12] was 90, the “max HR” value [1, 13] was 415** and the “min HR” value [1, 13] was 300. For the same compound, the “Δ HR” value [1, 13] was 115, the “max HR” value [1, 14] was 425* and the “min HR” value [1, 14] was 300*. For the same compound, the “Δ HR” value [1, 14] was 125, the “max HR” value [1, 15] was 380* and the “min HR” value [1, 15] was 325*. The “Δ HR” value [1, 15] was 65, the “T3max−Conmax” value ([1]; AVG) was 43 and the “T3max−Conmax” value ([1]; day 1) was 0. The “T3max−Conmax” value ([1]; day 2) was 10, the “T3max−Conmax” value ([1]; day 3) was 45 and the “T3max−Conmax” value ([1]; day 4) was 70. For the same compound, the “T3max−Conmax” value ([1]; day 5) was 65, the “T3max−Conmax” value ([1]; day 6 (no T3 dosing)) was 70 and the “T3max−Conmax” value ([1]; day 7 (no T3 dosing)) was 40. For the same compound, the concentration at 3 days ([2]; Sprague-Dawley, rat, serum, subcutaneous, 0.25 μg/d) was 0.44 ± 0.03 ng/mL, the concentration at 3 days ([2]; Sprague-Dawley, rat, serum, subcutaneous, 0.8 μg/d) was 0.78 ± 0.06 ng/mL and the concentration at 1 week ([2]; Sprague-Dawley, rat, serum, subcutaneous, 1 μg/d) was 1.32 ± 0.14 ng/mL. The “serum T3 levels versus normal” value ([2]; hypothyroid rats, 0.8 μg daily bolus injection, 24 hours after last injection) was “not effective in restoring serum T3 levels to normal”, the “serum T3 levels versus normal” value ([2]; hypothyroid rats, 0.8 μg/day by subcutaneous miniosmotic pump infusion, blood sampled at 72) was “restored to normal; also recorded: restores serum T3 levels to about normal” and the “serum T3 levels versus normal” value ([2]; hypothyroid rats, T3 infusion 0.25 μg/day and 0.5 μg/day) was “elevates serum T3 above levels observed in thyroidectomized animals, but does not fully restore serum T3 levels to normal”. The “serum T3 levels versus normal” value ([2]; hypothyroid rats, T3 infusion at doses above 0.8 μg/day) was “elevated serum T3 levels above normal”, the “serum T3 levels versus normal” value ([2]; thyroidectomized rats, single bolus injection 1 μg T3/day for 7 days) was “failed to restore serum T3 levels to normal” and the clearance [3] was ~0.013 L/h/kg. The half-life [4] was 7 h, the “metabolic clearance rate (MCR) of T3” value ([5]; humans (Chopra and Sabatino)) was 24 L/day/70 kg and the “metabolic clearance rate (MCR) of T3” value ([5]; hypothyroid humans (Bianchi et al.)) was 11.4 L/day/m^2. The “metabolic clearance rate (MCR) of T3” value [6] was 0.176 L/h/kg, the “Heart weight/Body weight” value [7] was 3.64 ± 0.07^a and the “alpha-MHC expression versus normal” value ([8]; hypothyroid rats, T3 infusion 0.25 and 0.5 μg/day) was “normalization of alpha-MHC expression was observed”. For the same compound, the “alpha-myosin HC expression versus normal” value ([8]; hypothyroid rats, bolus daily injections 0.25-0.8 μg T3/day) was “not by bolus daily injections”, the “alpha-myosin HC expression versus normal” value ([8]; hypothyroid rats, constant infusion 0.25-0.8 μg T3/day, 3-4 days) was “restored to normal” and the alpha-MHC cardiac transcription ([8]; thyroidectomized rats, bolus injection 1 μg T3 each day for 2 days) was 60 % of normal. The “alpha-MHC expression (hnRNA)” value ([8]; thyroidectomized rats, single bolus injection of 1 μg T3, time course) was “transient increase in alpha-MHC expression”.
